# Measured values published in article PMC10712727, “Safety, Tolerability, and Pharmacokinetics of Senaparib, a Novel PARP1/2 Inhibitor, in Chinese Patients With Advanced Solid Tumors: A Phase I Trial” (The Oncologist, 2023).
# Tested on: patients with advanced solid tumors
# Test: Safety: treatment-emergent and senaparib-related adverse events graded per NCI CTCAE v4.03
# Assay type: in vivo
# Procedure: This phase I, open-label, multicenter, dose-escalation, and dose-expansion study was conducted at three national clinical institutions in China. […] At baseline, all patients enrolled in the dose-escalation phase had to have at least one evaluable lesion, and those in the dose-expansion period had to have at least one measurable lesion, according to Response Evaluation Criteria in Solid Tumors version 1.1 (RECIST v1.1).[16] Entry to the dose-expansion cohort required the presence of a BRCA mutation, with the exception of patients with ovarian carcinoma, fallopian tube carcinoma, and primary peritoneal carcinoma. Full study eligibility criteria are provided in Supplementary Table S1.
# Dose escalation was conducted using a modified Fibonacci 3 + 3 method (Supplementary Fig. S1).[17] Patients were administered oral senaparib from a planned starting dose of 2 mg once daily (QD), with preliminary dose escalation to 120 mg via nine dose groups, in order of their entry into the study. At a given dose level, each patient received a single dose of senaparib followed by a 7-day washout period. They then entered a continuous dosing period to confirm the safety and PK profile, in which they received senaparib QD from day 1 to day 21 of each 3-week cycle. Progression to the next higher dose required approval from the Data Safety Monitoring Committee (DSMC) upon review of the safety and PK data of the previous dose. A 50-mg twice-daily (BID) dosing group was added (planned enrollment, n = 6 patients) based on a DSMC review of the safety, PK, and efficacy analysis of the completed QD dose groups in the phase I clinical trial of senaparib dose escalation in Australia (NCT03507543), which commenced prior to the start of this trial.
# The dose-expansion period included 3 populations: dose groups in which at least one patient achieved complete response (CR) or partial response (PR) per RECIST v1.1[16] and 1 dose group higher (evaluated for safety), as well as the dose group at the maximum tolerated dose (MTD)/recommended phase II dose (RP2D). Each of these groups included those patients in the respective dose-escalation group plus a planned additional 10 patients (approximately 20 patients in the MTD/RP2D group) with BRCA^mut+ solid tumors (ovarian, breast, or prostate cancer were preferred, and ovarian cancer could be BRCA wild type). Patients received senaparib monotherapy orally QD or BID (50-mg dose only) over each 3-week cycle until disease progression or unacceptable toxicity.
# DLTs were predefined toxicities (Supplementary Table S2) recorded over the 7 days following the single-dose administration of senaparib and during the first treatment cycle (day 1-day 21) for each dose group in the dose-escalation period only. The MTD was defined as the maximum dose at which ≤1/6 patients experienced a DLT. Senaparib PK parameters were derived from blood samples collected from patients after the single administration, and at regular intervals during the first cycle of the dose-escalation and dose-expansion periods. Plasma concentrations of senaparib were determined using high-performance liquid chromatography-tandem mass spectrometry. Tumor response was assessed every 6 weeks per RECIST v1.1,[16] recording objective response rate (ORR), disease control rate (DCR), duration of response (DOR), and progression-free survival (PFS) by dose level for all patients and for those harboring BRCA^mut+ tumors.
smiles,measurement,setting,value
O=C(c1cc(Cn2c(=O)[nH]c(=O)c3c(F)cccc32)ccc1F)N1CCN(c2ncccn2)CC1 [Senaparib],"ALT increased TRAE, All",2 mg QD n = 1,0 n (%)
same,"ALT increased TRAE, Gr≥3",2 mg QD n = 1,0 n (%)
same,"AST increased TRAE, All",2 mg QD n = 1,0 n (%)
same,"AST increased TRAE, Gr≥3",2 mg QD n = 1,0 n (%)
same,"Anemia TRAE, All",2 mg QD n = 1,0 n (%)
same,"Anemia TRAE, Gr≥3",2 mg QD n = 1,0 n (%)
same,"Any TEAE, All",2 mg QD n = 1,1 (100) n (%)
same,"Any TEAE, Gr≥3",2 mg QD n = 1,1 (100) n (%)
same,"Any TEAE, events",2 mg QD n = 1,9 n ev
same,"Any TEAE, patients",2 mg QD n = 1,1 (100) n (%)
same,"Any TRAE, All",2 mg QD n = 1,1 (100) n (%)
same,"Any TRAE, Gr≥3",2 mg QD n = 1,0 n (%)
same,"Appetite decreased TRAE, All",2 mg QD n = 1,1 (100) n (%)
same,"Appetite decreased TRAE, Gr≥3",2 mg QD n = 1,0 n (%)
same,"Asthenia TRAE, All",2 mg QD n = 1,0 n (%)
same,"Asthenia TRAE, Gr≥3",2 mg QD n = 1,0 n (%)
same,"Blood bilirubin increased TRAE, All",2 mg QD n = 1,0 n (%)
same,"Blood bilirubin increased TRAE, Gr≥3",2 mg QD n = 1,0 n (%)
same,"Blood creatinine increased TRAE, All",2 mg QD n = 1,0 n (%)
same,"Blood creatinine increased TRAE, Gr≥3",2 mg QD n = 1,0 n (%)
same,"Hypokalemia TRAE, All",2 mg QD n = 1,1 (100) n (%)
same,"Hypokalemia TRAE, Gr≥3",2 mg QD n = 1,0 n (%)
same,"Nausea TRAE, All",2 mg QD n = 1,0 n (%)
same,"Nausea TRAE, Gr≥3",2 mg QD n = 1,0 n (%)
same,"Neutrophil count decreased TRAE, All",2 mg QD n = 1,0 n (%)
same,"Neutrophil count decreased TRAE, Gr≥3",2 mg QD n = 1,0 n (%)
same,"Platelet count decreased TRAE, All",2 mg QD n = 1,0 n (%)
same,"Platelet count decreased TRAE, Gr≥3",2 mg QD n = 1,0 n (%)
same,"SAEs, events",2 mg QD n = 1,1 n ev
same,"SAEs, patients",2 mg QD n = 1,1 (100) n (%)
same,"TEAE Grade ≥3, events",2 mg QD n = 1,1 n ev
same,"TEAE Grade ≥3, patients",2 mg QD n = 1,1 (100) n (%)
same,"TEAEs leading to death, events",2 mg QD n = 1,0 n ev
same,"TEAEs leading to death, patients",2 mg QD n = 1,0 n (%)
same,"TEAEs leading to dose discontinuation, events",2 mg QD n = 1,0 n ev
same,"TEAEs leading to dose discontinuation, patients",2 mg QD n = 1,0 n (%)
same,"TEAEs leading to dose interruption, events",2 mg QD n = 1,0 n ev
same,"TEAEs leading to dose interruption, patients",2 mg QD n = 1,0 n (%)
same,"TEAEs leading to dose reduction, events",2 mg QD n = 1,0 n ev
same,"TEAEs leading to dose reduction, patients",2 mg QD n = 1,0 n (%)
same,"TRAEs Grade ≥3, events",2 mg QD n = 1,0 n ev
same,"TRAEs Grade ≥3, patients",2 mg QD n = 1,0 n (%)
same,"TRAEs, events",2 mg QD n = 1,6 n ev
same,"TRAEs, patients",2 mg QD n = 1,1 (100) n (%)
same,"Vomiting TRAE, All",2 mg QD n = 1,0 n (%)
same,"Vomiting TRAE, Gr≥3",2 mg QD n = 1,0 n (%)
same,"WBC decreased TRAE, All",2 mg QD n = 1,0 n (%)
same,"WBC decreased TRAE, Gr≥3",2 mg QD n = 1,0 n (%)
same,"ALT increased TRAE, All",5 mg QD n = 3,0 n (%)
same,"ALT increased TRAE, Gr≥3",5 mg QD n = 3,0 n (%)
same,"AST increased TRAE, All",5 mg QD n = 3,0 n (%)
same,"AST increased TRAE, Gr≥3",5 mg QD n = 3,0 n (%)
same,"Anemia TRAE, All",5 mg QD n = 3,2 (66.7) n (%)
same,"Anemia TRAE, Gr≥3",5 mg QD n = 3,1 (33.3) n (%)
same,"Any TEAE, All",5 mg QD n = 3,3 (100) n (%)
same,"Any TEAE, Gr≥3",5 mg QD n = 3,3 (100) n (%)
same,"Any TEAE, events",5 mg QD n = 3,28 n ev
same,"Any TEAE, patients",5 mg QD n = 3,3 (100) n (%)
same,"Any TRAE, All",5 mg QD n = 3,3 (100) n (%)
same,"Any TRAE, Gr≥3",5 mg QD n = 3,1 (33.3) n (%)
same,"Appetite decreased TRAE, All",5 mg QD n = 3,1 (33.3) n (%)
same,"Appetite decreased TRAE, Gr≥3",5 mg QD n = 3,0 n (%)
same,"Asthenia TRAE, All",5 mg QD n = 3,1 (33.3) n (%)
same,"Asthenia TRAE, Gr≥3",5 mg QD n = 3,0 n (%)
same,"Blood bilirubin increased TRAE, All",5 mg QD n = 3,1 (33.3) n (%)
same,"Blood bilirubin increased TRAE, Gr≥3",5 mg QD n = 3,0 n (%)
same,"Blood creatinine increased TRAE, All",5 mg QD n = 3,0 n (%)
same,"Blood creatinine increased TRAE, Gr≥3",5 mg QD n = 3,0 n (%)
same,"Hypokalemia TRAE, All",5 mg QD n = 3,0 n (%)
same,"Hypokalemia TRAE, Gr≥3",5 mg QD n = 3,0 n (%)
same,"Nausea TRAE, All",5 mg QD n = 3,1 (33.3) n (%)
same,"Nausea TRAE, Gr≥3",5 mg QD n = 3,0 n (%)
same,"Neutrophil count decreased TRAE, All",5 mg QD n = 3,1 (33.3) n (%)
same,"Neutrophil count decreased TRAE, Gr≥3",5 mg QD n = 3,0 n (%)
same,"Platelet count decreased TRAE, All",5 mg QD n = 3,1 (33.3) n (%)
same,"Platelet count decreased TRAE, Gr≥3",5 mg QD n = 3,0 n (%)
same,"SAEs, events",5 mg QD n = 3,0 n ev
same,"SAEs, patients",5 mg QD n = 3,0 n (%)
same,"TEAE Grade ≥3, events",5 mg QD n = 3,5 n ev
same,"TEAE Grade ≥3, patients",5 mg QD n = 3,3 (100) n (%)
same,"TEAEs leading to death, events",5 mg QD n = 3,0 n ev
same,"TEAEs leading to death, patients",5 mg QD n = 3,0 n (%)
same,"TEAEs leading to dose discontinuation, events",5 mg QD n = 3,0 n ev
same,"TEAEs leading to dose discontinuation, patients",5 mg QD n = 3,0 n (%)
same,"TEAEs leading to dose interruption, events",5 mg QD n = 3,0 n ev
same,"TEAEs leading to dose interruption, patients",5 mg QD n = 3,0 n (%)
same,"TEAEs leading to dose reduction, events",5 mg QD n = 3,0 n ev
same,"TEAEs leading to dose reduction, patients",5 mg QD n = 3,0 n (%)
same,"TRAEs Grade ≥3, events",5 mg QD n = 3,1 n ev
same,"TRAEs Grade ≥3, patients",5 mg QD n = 3,1 (33.3) n (%)
same,"TRAEs, events",5 mg QD n = 3,13 n ev
same,"TRAEs, patients",5 mg QD n = 3,3 (100) n (%)
same,"Vomiting TRAE, All",5 mg QD n = 3,0 n (%)
same,"Vomiting TRAE, Gr≥3",5 mg QD n = 3,0 n (%)
same,"WBC decreased TRAE, All",5 mg QD n = 3,1 (33.3) n (%)
same,"WBC decreased TRAE, Gr≥3",5 mg QD n = 3,0 n (%)
same,"ALT increased TRAE, All",10 mg QD n = 3,1 (33.3) n (%)
same,"ALT increased TRAE, Gr≥3",10 mg QD n = 3,0 n (%)
same,"AST increased TRAE, All",10 mg QD n = 3,1 (33.3) n (%)
same,"AST increased TRAE, Gr≥3",10 mg QD n = 3,0 n (%)
same,"Anemia TRAE, All",10 mg QD n = 3,1 (33.3) n (%)
same,"Anemia TRAE, Gr≥3",10 mg QD n = 3,0 n (%)
same,"Any TEAE, All",10 mg QD n = 3,3 (100) n (%)
same,"Any TEAE, Gr≥3",10 mg QD n = 3,0 n (%)
same,"Any TEAE, events",10 mg QD n = 3,10 n ev
same,"Any TEAE, patients",10 mg QD n = 3,3 (100) n (%)
same,"Any TRAE, All",10 mg QD n = 3,3 (100) n (%)
same,"Any TRAE, Gr≥3",10 mg QD n = 3,0 n (%)
same,"Appetite decreased TRAE, All",10 mg QD n = 3,1 (33.3) n (%)
same,"Appetite decreased TRAE, Gr≥3",10 mg QD n = 3,0 n (%)
same,"Asthenia TRAE, All",10 mg QD n = 3,0 n (%)
same,"Asthenia TRAE, Gr≥3",10 mg QD n = 3,0 n (%)
same,"Blood bilirubin increased TRAE, All",10 mg QD n = 3,0 n (%)
same,"Blood bilirubin increased TRAE, Gr≥3",10 mg QD n = 3,0 n (%)
same,"Blood creatinine increased TRAE, All",10 mg QD n = 3,0 n (%)
